Experimental data: patent US6737383B1, “Herbicidal oxadiazolidines” (priority 1999, dated 2004)

Columns and labels:
soybean = assay: Test B pre/postemergence soybean; format: in vivo, Glycine max
Outline: (§1)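 Test chemicals in a non-phytotoxic solvent mixture with surfactant were sprayed preemergence onto planted seeds and postemergence onto plants 2 to 18 cm tall (1- to 4-leaf stage). After twelve to sixteen days in a greenhouse, injury was visually rated against untreated controls from 0 (no effect) to 10 (complete control).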

surinam grass = assay: Test B pre/postemergence surinam grass; format: in vivo, Brachiaria decumbens
Outline: as §1

bamyardgrass = assay: Test B flood test barnyardgrass; format: in vivo, Echinochloa crus-galli
Outline: (§2)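 Flood test on plants grown to the 2-leaf stage; treated plants kept in greenhouse twelve to sixteen days, then visually rated against controls on a 0 (no effect) to 10 (complete control) scale.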

blackgrass = assay: Test B pre/postemergence blackgrass; format: in vivo, Alopecurus myosuroides
Outline: as §1

corn = assay: Test B pre/postemergence corn; format: in vivo, Zea mays
Outline: as §1

rice = assay: Test B flood test rice; format: in vivo, Oryza sativa
Outline: as §2

sugar beet = assay: Test B pre/postemergence sugar beet; format: in vivo, Beta vulgaris
Outline: as §1

smallflower flatsedge = assay: Test B flood test smallflower flatsedge; format: in vivo, Cyperus difformis
Outline: as §2

wild oat = assay: Test B pre/postemergence wild oat; format: in vivo, Avena fatua
Outline: as §1

rape = assay: Test B pre/postemergence rape; format: in vivo, Brassica napus
Outline: as §1

bedstraw = assay: Test B pre/postemergence bedstraw; format: in vivo, Galium aparine
Outline: as §1

cocklebur = assay: Test B pre/postemergence cocklebur; format: in vivo, Xanthium strumarium
Outline: as §1

purple nutsedge = assay: Test B pre/postemergence purple nutsedge; format: in vivo, Cyperus rotundus; settings: Postemergence
Outline: as §1

pigweed = assay: Test B pre/postemergence pigweed; format: in vivo, Amaranthus retroflexus
Outline: as §1

morningglory = assay: Test B pre/postemergence morningglory; format: in vivo, Ipomoea hederacea
Outline: as §1

velvetleaf = assay: Test B pre/postemergence velvetleaf; format: in vivo, Abutilon theophrasti
Outline: as §1

[1] = Preemergence, Rate 62 g/ha, scale of 0 to 10 where 0 is no effect and 10 is complete control
[2] = Preemergence, Rate 250 g/ha, scale of 0 to 10 where 0 is no effect and 10 is complete control
[3] = Preemergence, Rate 500 g/ha, scale of 0 to 10 where 0 is no effect and 10 is complete control
[4] = Rate 62 g/ha, Postemergence, scale of 0 to 10 where 0 is no effect and 10 is complete control
[5] = Rate 125 g/ha, Postemergence, scale 0 to 10
[6] = Rate 125 g/ha, Preemergence, scale of 0 to 10 where 0 is no effect and 10 is complete control
[7] = Rate 500 g/ha, Postemergence, scale 0 to 10, 0 no effect, 10 complete control
[8] = Rate 62 g/ha, headed Pre-emergence (flood test species), scale 0 to 10 (0 no effect, 10 complete control)
[9] = Rate 125 g/ha, Pre-emergence, flood test species, scale 0 to 10 where 0 is no effect and 10 is complete control
[10] = Rate 250 g/ha, Pre-emergence, flood-test species, scale 0 to 10, 0 is no effect, 10 is complete control
[11] = Rate 500 g/ha, Pre-emergence, flood test species, scale 0 to 10 (0 no effect, 10 complete control)

With `CC(C)N(C(=O)n1oc(=O)n(CC2(C)COC2)c1=O)c1ccc(F)cc1` [Compound 226] the “Soybean plant response rating” value (soybean; [1]) was 0, the “Soybean plant response rating” value (soybean; [2]) was 0 and the “Plant response rating, Soybean” value (soybean; [3]) was 0. The “Soybean plant response rating” value (soybean; [4]) was 2, the “Soybean plant response rating” value (soybean; [5]) was 2 and the “Soybean plant response rating” value (soybean; [6]) was 0. For the same compound, the “Plant response rating (0 to 10; 0 is no effect, 10 is complete control), Soybean” value (soybean; Rate 250 g/ha, Postemergence) was 3, the “Soybean plant response rating” value (soybean; [7]) was 6 and the “B. signalgrass plant response rating” value (surinam grass; [1]) was 3. For the same compound, the “B. signalgrass plant response rating” value (surinam grass; Preemergence, Rate 250 g/ha, scale 0 to 10, 0 is no effect, 10 is complete control) was 9, the “Plant response rating, B. signalgrass” value (surinam grass; [3]) was 10 and the “B. signalgrass plant response rating” value (surinam grass; [4]) was 0. The “B. signalgrass plant response rating” value (surinam grass; Rate 125 g/ha, Postemergence, scale 0 (no effect) to 10 (complete control)) was 2, the “B. signalgrass plant response rating” value (surinam grass; [6]) was 6 and the “Plant response rating (0 to 10; 0 is no effect, 10 is complete control), B. signalgrass” value (surinam grass; Rate 250 g/ha, Postemergence) was 6. The “B. signalgrass plant response rating” value (surinam grass; [7]) was 9, the “Barnyardgrass plant response rating” value (bamyardgrass; [8]) was 0 and the “Barnyardgrass plant response rating” value (bamyardgrass; [9]) was 0. For the same compound, the “Barnyardgrass plant response rating” value (bamyardgrass; [10]) was 0, the “Barnyardgrass plant response rating” value (bamyardgrass; [11]) was 0 and the “Blackgrass plant response rating” value (blackgrass; [1]) was 10. The “Blackgrass plant response rating” value (blackgrass; [2]) was 10, the “Plant response rating, Blackgrass” value (blackgrass; [3]) was 10 and the “Blackgrass plant response rating” value (blackgrass; [4]) was 0. The “Blackgrass plant response rating” value (blackgrass; [5]) was 5, the “Blackgrass plant response rating” value (blackgrass; [6]) was 10 and the “Plant response rating (0 to 10; 0 is no effect, 10 is complete control), Blackgrass” value (blackgrass; Rate 250 g/ha, Postemergence) was 8. For the same compound, the “Blackgrass plant response rating” value (blackgrass; [7]) was 9, the “Corn plant response rating” value (corn; [1]) was 0 and the “Corn plant response rating” value (corn; [2]) was 6. The “Plant response rating, Corn” value (corn; [3]) was 9, the “Corn plant response rating” value (corn; [4]) was 0 and the “Corn plant response rating” value (corn; [5]) was 0. For the same compound, the “Corn plant response rating” value (corn; [6]) was 0, the “Plant response rating (0 to 10; 0 is no effect, 10 is complete control), Corn” value (corn; Rate 250 g/ha, Postemergence) was 0 and the “Corn plant response rating” value (corn; [7]) was 6. For the same compound, the “Rice plant response rating” value (rice; [8]) was 0, the “Rice plant response rating” value (rice; [9]) was 0 and the “Rice plant response rating” value (rice; [10]) was 0. The “Rice plant response rating” value (rice; [11]) was 0, the “Sugarbeets plant response rating” value (sugar beet; [1]) was 0 and the “Sugarbeets plant response rating” value (sugar beet; [2]) was 5. The “Plant response rating, Sugarbeets” value (sugar beet; [3]) was 6, the “Sugarbeets plant response rating” value (sugar beet; [4]) was 0 and the “Sugarbeets plant response rating” value (sugar beet; [5]) was 0. The “Sugarbeets plant response rating” value (sugar beet; [6]) was 3, the “Plant response rating (0 to 10; 0 is no effect, 10 is complete control), Sugarbeets” value (sugar beet; Rate 250 g/ha, Postemergence) was 0 and the “Sugarbeets plant response rating” value (sugar beet; [7]) was 2. The “S. Flatsedge plant response rating” value (smallflower flatsedge; [8]) was 0, the “S. Flatsedge plant response rating” value (smallflower flatsedge; [9]) was 0 and the “S. Flatsedge plant response rating” value (smallflower flatsedge; [10]) was 0. For the same compound, the “S. Flatsedge plant response rating” value (smallflower flatsedge; [11]) was 0, the “Wild oats plant response rating” value (wild oat; [1]) was 1 and the “Wild oats plant response rating” value (wild oat; [2]) was 9. The “Plant response rating, Wild oats” value (wild oat; [3]) was 10, the “Wild oats plant response rating” value (wild oat; [4]) was 0 and the “Wild oats plant response rating” value (wild oat; [5]) was 0. For the same compound, the “Wild oats plant response rating” value (wild oat; [6]) was 3, the “Plant response rating (0 to 10; 0 is no effect, 10 is complete control), Wild oats” value (wild oat; Rate 250 g/ha, Postemergence) was 0 and the “Wild oats plant response rating” value (wild oat; [7]) was 3. For the same compound, the “Rape plant response rating” value (rape; [1]) was 0, the “Rape plant response rating” value (rape; [2]) was 7 and the “Plant response rating, Rape” value (rape; [3]) was 10. For the same compound, the “Rape plant response rating” value (rape; [4]) was 0, the “Rape plant response rating” value (rape; [5]) was 0 and the “Rape plant response rating” value (rape; [6]) was 0. The “Plant response rating (0 to 10; 0 is no effect, 10 is complete control), Rape” value (rape; Rate 250 g/ha, Postemergence) was 0, the “Rape plant response rating” value (rape; [7]) was 6 and the “Bedstraw plant response rating” value (bedstraw; [1]) was 0. The “Bedstraw plant response rating” value (bedstraw; [2]) was 0, the “Plant response rating, Bedstraw” value (bedstraw; [3]) was 0 and the “Bedstraw plant response rating” value (bedstraw; [4]) was 0. The “Bedstraw plant response rating” value (bedstraw; [5]) was 3, the “Bedstraw plant response rating” value (bedstraw; [6]) was 0 and the “Plant response rating (0 to 10; 0 is no effect, 10 is complete control), Bedstraw” value (bedstraw; Rate 250 g/ha, Postemergence) was 5. For the same compound, the “Bedstraw plant response rating” value (bedstraw; [7]) was 7, the “Cocklebur plant response rating” value (cocklebur; [1]) was 0 and the “Cocklebur plant response rating” value (cocklebur; [2]) was 0. The “Plant response rating, Cocklebur” value (cocklebur; [3]) was 0, the “Cocklebur plant response rating” value (cocklebur; [4]) was 0 and the “Cocklebur plant response rating” value (cocklebur; [5]) was 0. For the same compound, the “Cocklebur plant response rating” value (cocklebur; [6]) was 0, the “Plant response rating (0 to 10; 0 is no effect, 10 is complete control), Cocklebur” value (cocklebur; Rate 250 g/ha, Postemergence) was 0 and the “Cocklebur plant response rating” value (cocklebur; [7]) was 2. For the same compound, the “Nutsedge plant response rating” value (purple nutsedge; Rate 62 g/ha, scale of 0 to 10 where 0 is no effect and 10 is complete control) was 0, the “Nutsedge plant response rating” value (purple nutsedge; Rate 125 g/ha, scale 0 to 10) was 0 and the “Plant response rating (0 to 10; 0 is no effect, 10 is complete control), Nutsedge” value (purple nutsedge; Rate 250 g/ha) was 0. The “Nutsedge plant response rating” value (purple nutsedge; Rate 500 g/ha, scale 0 to 10, 0 no effect, 10 complete control) was 4, the “Redroot pigweed plant response rating” value (pigweed; [1]) was 0 and the “Redroot pigweed plant response rating” value (pigweed; [2]) was 7. The “Plant response rating, Redroot pigweed” value (pigweed; [3]) was 9, the “Redroot pigweed plant response rating” value (pigweed; [4]) was 0 and the “Redroot pigweed plant response rating” value (pigweed; [5]) was 0. The “Redroot pigweed plant response rating” value (pigweed; [6]) was 0, the “Plant response rating (0 to 10; 0 is no effect, 10 is complete control), Redroot pigweed” value (pigweed; Rate 250 g/ha, Postemergence) was 0 and the “Redroot pigweed plant response rating” value (pigweed; [7]) was 0. For the same compound, the “Morningglory plant response rating” value (morningglory; [1]) was 0, the “Morningglory plant response rating” value (morningglory; [2]) was 7 and the “Plant response rating, Morningglory” value (morningglory; [3]) was 8. The “Morningglory plant response rating” value (morningglory; [4]) was 5, the “Morningglory plant response rating” value (morningglory; [5]) was 7 and the “Morningglory plant response rating” value (morningglory; [6]) was 0. The “Plant response rating (0 to 10; 0 is no effect, 10 is complete control), Morningglory” value (morningglory; Rate 250 g/ha, Postemergence) was 7, the “Morningglory plant response rating” value (morningglory; [7]) was 7 and the “Velvetleaf plant response rating” value (velvetleaf; [1]) was 2. For the same compound, the “Velvetleaf plant response rating” value (velvetleaf; [2]) was 6, the “Plant response rating, Velvetleaf” value (velvetleaf; [3]) was 7 and the “Velvetleaf plant response rating” value (velvetleaf; [4]) was 0. The “Velvetleaf plant response rating” value (velvetleaf; [5]) was 0, the “Velvetleaf plant response rating” value (velvetleaf; [6]) was 5 and the “Plant response rating (0 to 10; 0 is no effect, 10 is complete control), Velvetleaf” value (velvetleaf; Rate 250 g/ha, Postemergence) was 0. The “Velvetleaf plant response rating” value (velvetleaf; [7]) was 0.
